Where “and” joins values, the source holds several entries; their conditions need not be identical. Equal entries are not always repeated. Toxic doses and inconclusive results are not listed. Cut-off read from the data, not from the text of the source: active = T/C of 150% or more; inactive = T/C below 125%.
Tested on: L1210 leukemia ip in BDF1 mice, survival T/C
Test: NCI In Vivo Anticancer Drug Screen. Data for tumor model L1210 Leukemia (intraperitoneal) in B6D2F1 (BDF1) mice
Details: endpoint: mean survival time, higher = longer survival
Procedure, shortened: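 Transplantable tumor model; survival measured in treated vs vehicle control mice. Value = treated/control.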

[1] = dose: 100.0 mg/kg/injection, schedule: Q01DX001 (ip), vehicle: carboxymethylcellulose (CMC)
[2] = dose: 100.0 mg/kg/injection, schedule: Q04DX002 (ip), vehicle: Klucel (hydroxypropylcellulose) (HPC)
[3] = dose: 200.0 mg/kg/injection, schedule: Q01DX001 (ip), vehicle: carboxymethylcellulose (CMC)
[4] = dose: 200.0 mg/kg/injection, schedule: Q04DX002 (ip), vehicle: Klucel (hydroxypropylcellulose) (HPC)
[5] = dose: 400.0 mg/kg/injection, schedule: Q01DX001 (ip), vehicle: carboxymethylcellulose (CMC)
[6] = dose: 100.0 mg/kg/injection, schedule: Q04DX003 (ip), vehicle: saline with Tween-80
[7] = dose: 200.0 mg/kg/injection, schedule: Q04DX003 (ip), vehicle: saline with Tween-80
[8] = dose: 100.0 mg/kg/injection, schedule: Q04DX003 (ip), vehicle: Klucel (hydroxypropylcellulose) (HPC)
[9] = dose: 200.0 mg/kg/injection, schedule: Q04DX003 (ip), vehicle: Klucel (hydroxypropylcellulose) (HPC)
[10] = dose: 400.0 mg/kg/injection, schedule: Q04DX003 (ip), vehicle: Klucel (hydroxypropylcellulose) (HPC)
[11] = dose: 50.0 mg/kg/injection, schedule: Q01DX001 (ip), vehicle: carboxymethylcellulose (CMC)
[12] = dose: 100.0 mg/kg/injection, schedule: Q01DX009 (ip), vehicle: saline
[13] = dose: 200.0 mg/kg/injection, schedule: Q01DX009 (ip), vehicle: saline
[14] = dose: 25.0 mg/kg/injection, schedule: Q01DX009 (ip), vehicle: saline
[15] = dose: 50.0 mg/kg/injection, schedule: Q01DX009 (ip), vehicle: saline

Measured: T/C

NNC(=O)CNc1cc(Cl)cc(Cl)c1
inactive: [1] 94 % of control | dose: 100.0 mg/kg/injection, schedule: Q01DX009 (ip), vehicle: carboxymethylcellulose (CMC) 92 % of control | [2] 91 % of control | dose: 100.0 mg/kg/injection, schedule: Q04DX002 (ip), vehicle: carboxymethylcellulose (CMC) 95 % of control and 100 % of control | dose: 100.0 mg/kg/injection, schedule: Q04DX003 (ip), vehicle: carboxymethylcellulose (CMC) 92 % of control | [3] 96 % of control | dose: 200.0 mg/kg/injection, schedule: Q01DX009 (ip), vehicle: carboxymethylcellulose (CMC) 88 % of control | [4] 109 % of control | dose: 200.0 mg/kg/injection, schedule: Q04DX002 (ip), vehicle: carboxymethylcellulose (CMC) 95 % of control and 104 % of control | dose: 200.0 mg/kg/injection, schedule: Q04DX003 (ip), vehicle: carboxymethylcellulose (CMC) 97 % of control | dose: 400.0 mg/kg/injection, schedule: Q04DX002 (ip), vehicle: carboxymethylcellulose (CMC) 98 % of control

CC(CC(C#N)(c1ccccc1)c1ccccc1)OS(C)(=O)=O (stereo not drawn)
inactive: [1] 94 % of control | [3] 94 % of control | [5] 94 % of control

CCOC(=O)C(=O)Nc1ccc(Cl)cc1
inactive: dose: 100.0 mg/kg/injection, schedule: Q01DX001 (ip), vehicle: saline with Tween-80 96 % of control | dose: 200.0 mg/kg/injection, schedule: Q01DX001 (ip), vehicle: saline with Tween-80 96 % of control | dose: 400.0 mg/kg/injection, schedule: Q01DX001 (ip), vehicle: saline with Tween-80 95 % of control

Cc1nc(NC(=O)CBr)[nH]c(=O)c1CCC(C)C
inactive: [6] 107 % of control | [7] 100 % of control | dose: 400.0 mg/kg/injection, schedule: Q04DX003 (ip), vehicle: saline with Tween-80 88 % of control

CC1([N+](=O)[O-])COP(=O)(Nc2ccccc2F)OC1 (stereo not drawn)
inactive: [1] 101 % of control | [3] 95 % of control | [5] 104 % of control

CO/C(=N\S(=O)(=O)c1ccccc1)C1CC=CCC1/C(=N\S(=O)(=O)c1ccccc1)OC (stereo not drawn)
inactive: [8] 100 % of control | [9] 94 % of control | [10] 100 % of control

Cc1cc(C)c(C(=O)c2no[n+]([O-])c2C(=O)c2c(C)cc(C)c(Br)c2C)c(C)c1Br
inactive: [7] 87 % of control

CCCN(CCC)CCCC#N
inactive: [6] 95 % of control | [7] 93 % of control

NC(CSS(=O)(=O)O)=NC1CCCC1
inactive: dose: 12.5 mg/kg/injection, schedule: Q01DX001 (ip), vehicle: carboxymethylcellulose (CMC) 107 % of control | dose: 25.0 mg/kg/injection, schedule: Q01DX001 (ip), vehicle: carboxymethylcellulose (CMC) 101 % of control | [11] 102 % of control

O=C1C(c2ccccc2)=c2c(c3ccccc3c3ccccc23)=C1c1ccccc1
inactive: [11] 103 % of control and 100 % of control | [1] 100 % of control and 97 % of control | dose: 100.0 mg/kg/injection, schedule: Q01DX009 (ip), vehicle: saline with Tween-80 96 % of control | [3] 100 % of control and 97 % of control | dose: 200.0 mg/kg/injection, schedule: Q01DX009 (ip), vehicle: saline with Tween-80 90 % of control | [5] 94 % of control | dose: 400.0 mg/kg/injection, schedule: Q01DX009 (ip), vehicle: saline with Tween-80 93 % of control

COc1ccc2c(c1OC)CN(C)CCc1cc3c(cc1C(=O)C2)OCO3
inactive: [1] 96 % of control | [3] 96 % of control | [5] 100 % of control

CCCCN=C(NCCCC)OC1CCCCC1
inactive: dose: 11.1 mg/kg/injection, schedule: Q01DX Z (ip), vehicle: saline 98 % of control | dose: 16.6 mg/kg/injection, schedule: Q01DX Z (ip), vehicle: saline 100 % of control | dose: 25.0 mg/kg/injection, schedule: Q01DX Z (ip), vehicle: saline 102 % of control

CC12C=CC(CC1)C2(C)C (stereo not drawn)
inactive: [12] 95 % of control | [13] 92 % of control

CN(C)CCC1(c2ccccc2)C=Cc2ccccc21 (stereo not drawn)
inactive: dose: 3.12 mg/kg/injection, schedule: Q01DX009 (ip), vehicle: saline 93 % of control | dose: 6.25 mg/kg/injection, schedule: Q01DX009 (ip), vehicle: saline 97 % of control | dose: 12.5 mg/kg/injection, schedule: Q01DX009 (ip), vehicle: saline 101 % of control | [14] 100 % of control | [15] 95 % of control

CC(CCl)(CCl)CCl
inactive: dose: 50.0 mg/kg/injection, schedule: Q01DX009 (ip), vehicle: saline sonified 96 % of control | dose: 100.0 mg/kg/injection, schedule: Q01DX001 (ip), vehicle: saline sonified 99 % of control | dose: 100.0 mg/kg/injection, schedule: Q01DX009 (ip), vehicle: saline sonified 106 % of control | dose: 200.0 mg/kg/injection, schedule: Q01DX001 (ip), vehicle: saline sonified 96 % of control | dose: 200.0 mg/kg/injection, schedule: Q01DX009 (ip), vehicle: saline sonified 94 % of control

FC(F)(F)c1nc2ccccc2[nH]1
inactive: dose: 50.0 mg/kg/injection, schedule: Q04DX002 (ip), vehicle: Klucel (hydroxypropylcellulose) (HPC) 86 % of control | [2] 100 % of control | [4] 93 % of control

COC1=CC23CCCN2CCc2cc4c(cc2C3C1O)OCO4 (stereo not drawn)
inactive: [14] 93 % of control | [15] 103 % of control | dose: 55.0 mg/kg/injection, schedule: Q01DX009 (ip), vehicle: saline 98 % of control | [12] 117 % of control | dose: 110.0 mg/kg/injection, schedule: Q01DX009 (ip), vehicle: saline 107 % of control | dose: 220.0 mg/kg/injection, schedule: Q01DX009 (ip), vehicle: saline 102 % of control

CC(C)(C)C1C(=O)N1C(C)(C)C (stereo not drawn)
inactive: dose: 100.0 mg/kg/injection, schedule: Q01DX009 (ip), vehicle: Klucel (hydroxypropylcellulose) (HPC) 103 % of control | [8] 101 % of control | dose: 200.0 mg/kg/injection, schedule: Q01DX009 (ip), vehicle: Klucel (hydroxypropylcellulose) (HPC) 101 % of control | [9] 97 % of control | [10] 97 % of control

O=C(O)C1CC2C3CC(C(=O)O)C(C3)C2C1 (stereo not drawn)
inactive: [12] 96 % of control | dose: 100.0 mg/kg/injection, schedule: Q04DX003 (ip), vehicle: saline 102 % of control | [13] 101 % of control | dose: 200.0 mg/kg/injection, schedule: Q04DX003 (ip), vehicle: saline 100 % of control | dose: 400.0 mg/kg/injection, schedule: Q01DX009 (ip), vehicle: saline 101 % of control | dose: 400.0 mg/kg/injection, schedule: Q04DX003 (ip), vehicle: saline 96 % of control

Cc1ccc(S(=O)(=O)N(c2ccc(I)cc2F)S(=O)(=O)c2ccc(C)cc2)cc1
inactive: [8] 98 % of control | [9] 97 % of control | [10] 108 % of control

CCOC(=N)C(O)c1ccccc1 (stereo not drawn)
inactive: dose: 100.0 mg/kg/injection, schedule: Q04DX002 (ip), vehicle: saline with Tween-80 111 % of control | dose: 200.0 mg/kg/injection, schedule: Q04DX002 (ip), vehicle: saline with Tween-80 100 % of control | dose: 400.0 mg/kg/injection, schedule: Q04DX002 (ip), vehicle: saline with Tween-80 100 % of control

O=C1NCN(c2ccccc2)C12CCN(CCCS(=O)(=O)c1ccccc1)CC2
inactive: dose: 100.0 mg/kg/injection, schedule: Q01DX001 (ip), vehicle: Klucel (hydroxypropylcellulose) (HPC) 93 % of control | dose: 200.0 mg/kg/injection, schedule: Q01DX001 (ip), vehicle: Klucel (hydroxypropylcellulose) (HPC) 94 % of control | dose: 400.0 mg/kg/injection, schedule: Q01DX001 (ip), vehicle: Klucel (hydroxypropylcellulose) (HPC) 101 % of control

O=C(O)C1=C(C(=O)O)C2CCC1C2
inactive: [6] 100 % of control | [7] 88 % of control
